Format in all cases: binding
Experiment [1] deals with T1, SeClpP (ClpP from Staphylococcus epidermidis) (Staphylococcus epidermidis, UniProt Q8CTE0).
T1 construct: codon-optimised ORF in pET28a(+), C-terminal His-tag, expressed in E. coli BL21(DE3) Star; homotetradecamer (about 300 kDa) of two stacked heptameric rings, heptamers also present without glycerol; catalytic triad Ser98, His123, Asp172
T1 sequence (Q8CTE0 1-194): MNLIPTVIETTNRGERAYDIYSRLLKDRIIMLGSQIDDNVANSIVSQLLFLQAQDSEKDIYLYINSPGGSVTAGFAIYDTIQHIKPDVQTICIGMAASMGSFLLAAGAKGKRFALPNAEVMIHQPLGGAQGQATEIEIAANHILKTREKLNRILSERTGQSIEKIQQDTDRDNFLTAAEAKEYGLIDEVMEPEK
Nature of the experiment: X-ray crystal structure, soaked crystals, […] Å. The conditions noted are these: catalytic site; covalent (boron to Ser98, reversible); crystals soaked with 10 mM ixazomib.

The target of experiment [2] is T1, SeClpP (ClpP from Staphylococcus epidermidis). Nature of the experiment: nanoDSF thermal shift. To be noted: 10 µM SeClpP, pH 7.5, 100 mM KCl, 2 mM DTT, no glycerol; covalent (reversible boronate). A general note: In DSF a fluorescence change marks the thermal transition of the protein.
For experiment [3] the target is unchanged. Nature of the experiment: isothermal titration calorimetry. To be noted: read-out: K (converted). For orientation: In ITC the heat of successive injections is recorded.

Take `CC(C)C[C@H](NC(=O)CNC(=O)c1cc(Cl)ccc1Cl)B(O)O` [ixazomib]: in experiment [1], the “X-ray crystal structure, soaked crystals, 2.33 Å” value is “the boron atom of ixazomib is covalently bound to Ser98”. The melting temperature result in experiment [2] was “SeClpP bound to the peptidomimetic boronate, and therefore more thermostable”. In addition, the Kd in experiment [3] was 5.38 µM.
